Measurements from patent US20230295140A1, “INHIBITORS OF VAP-1” (Acucela Inc., priority 2021, published 2023).

Experiments:
Type in all cases: biochemical
rhMAO-B = rhMAO-B (Homo sapiens (Human), UniProt P27338); test: MAO-Glo assay, MAO-B inhibition
Protocol: (§1) The capability of compounds described herein to inhibit MAO was determined using a modified Promega MAO-Glo™ assay kit. The substrate ((4S)-4,5-dihydro-2-(6-hydroxybenzothiazolyl)-4-thiazolecarboxylic acid) was converted by MAO to produce methyl ester luciferin. The luciferin was then converted by luciferase to produce oxyluciferin and light. The light was measured using a luminescence setting on the plate reader. A standard curve was prepared by serially diluting luciferin in reaction buffer. The standard kit reaction buffer was used—100 mM HEPES (pH 7.5), 5% glycerol. The substrate was dispensed into the wells so that the final concentration for MAO-A inhibition assay would be 10 μM and MAO-B inhibition assay would be […]. Inhibitors were diluted in DMSO to 4× and distributed to the appropriate wells. Clorgyline and Deprenyl served as positive controls. rhMAO-A and rhMAO-B were purchased from Sigma. MAO-A or MAO-B was added to the appropriate wells. The plate was incubated for 1 hour, at room temperature with gentle shaking (90 rpm). The detection agent was added at equal volume (48 μL detection agent to 48 μL reaction). The plate was incubated for 20 minutes, at room temperature with gentle shaking (90 rpm). The plate luminescence was read. Data processing was performed using Prism software.
(§2) The capability of compounds described herein to inhibit MAO was determined using a modified Promega MAO-Glo™ assay. Test compounds, substrate and enzyme were incubated per manufacturer instructions for 1 hour, at room temperature with gentle shaking (90 rpm) before addition of detection agent. The detection agent was added at equal volume (48 μL detection agent to 48 μL reaction). The plate was incubated for 20 minutes, at room temperature with gentle shaking (90 rpm). The plate luminescence was read. Data processing was performed using Prism software.

rhVAP-1 = rhVAP-1 (Homo sapiens (Human), UniProt Q16853); test: VAP-1 fluorometric assay (Amplex Red/HRP, benzylamine substrate); settings: class symbols, ranges defined in μM
Sequence of rhVAP-1 (Q16853 whole entry): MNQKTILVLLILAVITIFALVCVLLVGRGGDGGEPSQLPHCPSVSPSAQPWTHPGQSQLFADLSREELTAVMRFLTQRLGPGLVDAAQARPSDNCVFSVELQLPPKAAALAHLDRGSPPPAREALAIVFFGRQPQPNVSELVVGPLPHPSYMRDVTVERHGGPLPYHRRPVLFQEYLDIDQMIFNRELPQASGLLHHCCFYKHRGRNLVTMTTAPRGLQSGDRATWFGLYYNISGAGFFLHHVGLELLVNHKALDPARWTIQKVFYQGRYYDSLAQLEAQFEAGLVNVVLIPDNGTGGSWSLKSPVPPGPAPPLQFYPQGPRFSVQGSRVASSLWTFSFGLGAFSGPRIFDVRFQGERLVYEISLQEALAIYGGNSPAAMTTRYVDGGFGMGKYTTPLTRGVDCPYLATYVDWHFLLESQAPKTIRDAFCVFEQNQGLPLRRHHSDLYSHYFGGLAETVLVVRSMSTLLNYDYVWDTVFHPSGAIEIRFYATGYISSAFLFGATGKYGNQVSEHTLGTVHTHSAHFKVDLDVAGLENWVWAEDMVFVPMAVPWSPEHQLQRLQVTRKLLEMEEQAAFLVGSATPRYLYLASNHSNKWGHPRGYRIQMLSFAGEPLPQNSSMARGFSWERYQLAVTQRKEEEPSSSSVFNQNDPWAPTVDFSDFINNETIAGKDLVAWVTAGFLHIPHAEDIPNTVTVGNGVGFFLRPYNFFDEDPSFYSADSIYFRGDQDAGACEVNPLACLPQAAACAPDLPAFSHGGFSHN
Protocol: The capability of compounds described herein to inhibit the enzymatic activity of vascular adhesion protein-1 (VAP-1) was determined by fluorometric assay. The assay procedure provided by R&D Systems was modified slightly for use as an inhibitor screening assay. The assay measured the H2O2 generated from the oxidative deamination of benzylamine by rhVAP-1 by converting Amplex® Red to the fluorescent product, resorufin, via horseradish peroxidase (HRP) and H2O2. Reaction buffer was 10 mM NaHCO3, pH 7.4. A standard curve was prepared by serially diluting H2O2 in reaction buffer. A 10 μM solution of resorufin was prepared in reaction buffer and was dispensed to 2 wells. These wells served as positive control for maximum fluorescence. Reaction buffer was added to the individual wells so that the final volume in each well was 100 μL. Amplex Red was diluted to 1 mM in reaction buffer. A 10 U stock of HRP was prepared in reaction buffer. A reaction cocktail was prepared by mixing equal parts 1 mM Amplex Red with 10 U HRP with 3 parts reaction buffers. The reaction cocktail was added to the appropriate wells, so that that final concentration in the well was 0.05 mM Amplex Red and 0.5 U HRP. A 200 μM solution of benzylamine was prepared in reaction buffer. Benzylamine was added to the appropriate wells so that the final concentration was 50 μM. Inhibitors were diluted in DMSO to 20× and distributed to the appropriate wells. LJP-1207 served a positive control. rhVAP-1 was purchased from R&D Systems. The concentration used for each lot was determined so that the activity was equal to the first lot. Two wells were left blank as controls. The plate was incubated for 30 minutes at 37° C., protected from light under foil. The plate was read at 530/35 emission and 590/35 excitation. Data processing was performed using Excel and Prism software.
The capability of compounds described herein to inhibit the enzymatic activity of vascular adhesion protein-1 (VAP-1) was determined by fluorometric assay. The assay procedure provided by R&D Systems was modified slightly for use as an inhibitor screening assay. The assay measured the H2O2 generated from the oxidative deamination of benzylamine by rhVAP-1 by converting Amplex® Red to the fluorescent product, resorufin, via horseradish peroxidase (HRP) and H2O2. Amplex Red, HRP, Benzylamine, inhibitors (with DMSO as vehicle, 0.5% v/v) and rhVAP-1 were added to the wells. Assay was conducted in 10 mM NaHCO3, pH 7.4. A standard curve was prepared by serially diluting H2O2 in reaction buffer. The plate was incubated for 30 minutes at 37° C., protected from light under foil. The plate was read at 530/35 emission and 590/35 excitation. Data processing was performed using Prism software.

rhMAO-A = rhMAO-A (Homo sapiens (Human), UniProt P21397); test: MAO-Glo assay, MAO-A inhibition
Sequence of rhMAO-A (P21397 whole entry): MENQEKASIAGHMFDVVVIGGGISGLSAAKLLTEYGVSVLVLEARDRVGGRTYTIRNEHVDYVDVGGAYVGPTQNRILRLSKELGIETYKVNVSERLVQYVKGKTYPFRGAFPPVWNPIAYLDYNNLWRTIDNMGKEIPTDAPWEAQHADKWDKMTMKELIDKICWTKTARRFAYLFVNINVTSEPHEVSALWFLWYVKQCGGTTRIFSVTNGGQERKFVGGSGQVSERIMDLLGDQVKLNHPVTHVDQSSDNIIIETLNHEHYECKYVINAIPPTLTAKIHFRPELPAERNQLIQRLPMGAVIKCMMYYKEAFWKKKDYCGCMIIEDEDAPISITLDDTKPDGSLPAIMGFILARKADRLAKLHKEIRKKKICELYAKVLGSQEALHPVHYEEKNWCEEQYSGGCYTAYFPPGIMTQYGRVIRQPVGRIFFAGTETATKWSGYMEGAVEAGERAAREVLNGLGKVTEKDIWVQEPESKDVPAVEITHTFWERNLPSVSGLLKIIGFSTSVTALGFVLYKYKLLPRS
Protocol: as §1, §2

[1] = class symbols, ranges defined in μM

Sequence of rhMAO-B (P27338 whole entry): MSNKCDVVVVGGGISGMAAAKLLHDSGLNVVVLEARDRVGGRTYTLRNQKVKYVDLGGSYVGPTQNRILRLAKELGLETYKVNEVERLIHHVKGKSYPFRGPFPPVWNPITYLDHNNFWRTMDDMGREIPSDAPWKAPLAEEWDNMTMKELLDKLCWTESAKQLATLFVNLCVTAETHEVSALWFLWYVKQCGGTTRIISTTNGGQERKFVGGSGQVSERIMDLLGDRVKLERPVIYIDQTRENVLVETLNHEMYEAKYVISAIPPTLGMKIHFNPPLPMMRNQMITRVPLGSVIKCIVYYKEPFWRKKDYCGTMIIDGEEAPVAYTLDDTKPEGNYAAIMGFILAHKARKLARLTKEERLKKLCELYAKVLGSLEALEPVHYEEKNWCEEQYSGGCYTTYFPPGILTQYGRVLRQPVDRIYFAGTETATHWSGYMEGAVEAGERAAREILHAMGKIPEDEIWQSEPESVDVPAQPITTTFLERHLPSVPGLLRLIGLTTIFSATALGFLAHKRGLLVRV

SMILES | IC50 (rhMAO-B; [1]) [µM] | IC50 (rhVAP-1) [µM] | IC50 (rhMAO-A; [1]) [µM] | IC50 (rhMAO-B; bound printed in cell) [µM] | IC50 (rhMAO-A; bound printed in cell) [µM]
CNC(=O)CN(Cc1ccccc1)c1nc2ccc(OC/C(=C/F)CN)cc2o1 [Example 53, (E)-2-((6-((2-(aminomethyl)-3-fluoroallyl)oxy)benzo[d]oxazol-2-yl)(benzyl)amino)-N-methylacetamide 4-methylbenzenesulfonate] |  | < 0.1 |  | > 50 | > 50
NC/C(=C\F)COc1ccc2nc(C34CC5CC(CC(C5)C3)C4)oc2c1 [Example 54, (E)-2-(((2-((3r,5r,7r)-adamantan-1-yl)benzo[d]oxazol-6-yl)oxy)methyl)-3-fluoroprop-2-en-1-amine 4-methylbenzenesulfonate] | 1 to 10 | < 0.1 | 1 to 10 |  | 
Cc1ccc(CNc2nc3ccc(OC/C(=C/F)CN)cc3o2)cn1 [Example 55, (E)-6-((2-(aminomethyl)-3-fluoroallyl)oxy)-N-((6-methylpyridin-3-yl)methyl)benzo[d]oxazol-2-amine 4-methylbenzenesulfonate] | 1 to 10 | < 0.1 |  |  | > 35
CNC(=O)C(Cc1ccccc1)Nc1nc2ccc(OC/C(=C\F)CN)cc2o1 (stereo not drawn) [Example 56, (Z)-2-((6-((2-(aminomethyl)-3-fluoroallyl)oxy)benzo[d]oxazol-2-yl)amino)-N-methyl-3-phenylpropanamide 4-methylbenzenesulfonate] | 10 to 30 | < 0.1 |  |  | > 50
NC/C(=C/F)COc1ccc2nc(NCc3ccc(N4CCCC4=O)cc3)oc2c1 [Example 57, (Z)-1-(4-(((6-((2-(aminomethyl)-3-fluoroallyl)oxy)benzo[d]oxazol-2-yl)amino)methyl)phenyl)pyrrolidin-2-one 4-methylbenzenesulfonate] |  | 1 to 10 | 1 to 10 | > 40 | 
NC/C(=C/F)COc1ccc2nc(NCc3ccnc(C(F)(F)F)c3)oc2c1 [Example 62, (Z)-6-((2-(aminomethyl)-3-fluoroallyl)oxy)-N-((2-(trifluoromethyl)pyridin-4-yl)methyl)benzo[d]oxazol-2-amine 4-methylbenzenesulfonate] | 1 to 10 | < 0.1 | 10 to 30 |  | 
CCCCc1nc2cc(C)c(OC/C(=C/F)CN)cc2o1 [Example 68, (E)-2-(((2-butyl-5-methylbenzo[d]oxazol-6-yl)oxy)methyl)-3-fluoroprop-2-en-1-amine 4-methylbenzenesulfonate] | 0.1 to 1 | < 0.1 | 1 to 10 |  | 
CNC(=O)[C@H](Cc1ccccc1)Nc1nc2ccc(OC/C(=C\F)CN)cc2o1 [Example 71, (S,Z)-2-((6-((2-(aminomethyl)-3-fluoroallyl)oxy)benzo[d]oxazol-2-yl)amino)-N-methyl-3-phenylpropanamide 4-methylbenzenesulfonate] | 1 to 10 | < 0.1 |  |  | > 50
CCCCc1nc2ccc(OC/C(=C\F)CN)cc2n1C [Example 73, (Z)-2-(((2-Butyl-1-methyl-1H-benzo[d]imidazol-6-yl)oxy)methyl)-3-fluoroprop-2-en-1-amine 4-methylbenzenesulfonate] | 1 to 10 | < 0.1 | 1 to 10 |  | 

The next lines start with the values.

IC50 (rhMAO-B; [1]) [µM] | IC50 (rhVAP-1) [µM] | IC50 (rhMAO-A; [1]) [µM] | IC50 (rhMAO-B; bound printed in cell) [µM] | IC50 (rhMAO-A; bound printed in cell) [µM] | SMILES
1 to 10 | < 0.1 | 10 to 30 |  |  | CC(C)(C)c1nc2ccc(OC/C(=C/F)CN)cc2o1 [Example 50, (E)-2-(((2-(tert-butyl)benzo[d]oxazol-6-yl)oxy)methyl)-3-fluoroprop-2-en-1-amine 4-methylbenzenesulfonate]
0.1 to 1 | < 0.1 | 1 to 10 |  |  | CC(C)(C)CCCc1nc2ccc(OC/C(=C/F)CN)cc2o1 [Example 51, (E)-2-(((2-(4,4-dimethylpentyl)benzo[d]oxazol-6-yl)oxy)methyl)-3-fluoroprop-2-en-1-amine 4-methylbenzenesulfonate]
1 to 10 | 1 to 10 |  |  | > 50 | NC/C(=C/F)COc1ccc2nc(NCc3cccnc3)oc2c1 [Example 58, (Z)-6-((2-(aminomethyl)-3-fluoroallyl)oxy)-N-(pyridin-3-ylmethyl)benzo[d]oxazol-2-amine bis(4-methylbenzenesulfonate)]
1 to 10 | 1 to 10 | 1 to 10 |  |  | CC(C)(C)CNc1nc2ccc(OC/C(=C/F)CN)cc2o1 [Example 59, (E)-6-((2-(aminomethyl)-3-fluoroallyl)oxy)-N-neopentylbenzo[d]oxazol-2-amine (4-methylbenzenesulfonate)]
1 to 10 | < 0.1 |  |  | > 50 | Cc1cc(CNc2nc3ccc(OC/C(=C\F)CN)cc3o2)cc(C)n1 [Example 60, (Z)-6-((2-(aminomethyl)-3-fluoroallyl)oxy)-N-((2,6-dimethylpyridin-4-yl)methyl)benzo[d]oxazol-2-amine bis(4-methylbenzenesulfonate)]
1 to 10 | < 0.1 |  |  | > 50 | COCCNc1nc2ccc(OC/C(=C\F)CN)cc2o1 [Example 61, (Z)-6-((2-(aminomethyl)-3-fluoroallyl)oxy)-N-(2-methoxyethyl)benzo[d]oxazol-2-amine 4-methylbenzenesulfonate]
1 to 10 | < 0.1 | 1 to 10 |  |  | NC/C(=C/F)COc1ccc2nc(N3CCOCC3)oc2c1 [Example 64, (Z)-3-fluoro-2-(((2-morpholinobenzo[d]oxazol-6-yl)oxy)methyl)prop-2-en-1-amine 4-methylbenzenesulfonate]
1 to 10 | < 0.1 | 0.1 to 1 |  |  | NC/C(=C/F)COc1ccc2nc(NCCC3COC3)oc2c1 [Example 65, (Z)-6-((2-(aminomethyl)-3-fluoroallyl)oxy)-N-(2-(oxetan-3-yl)ethyl)benzo[d]oxazol-2-amine 4-methylbenzenesulfonate]
1 to 10 | < 0.1 | 1 to 10 |  |  | NC/C(=C\F)COc1ccc2nc(N3CC4(COC4)C3)oc2c1 [Example 67, (E)-2-(((2-(2-oxa-6-azaspiro[3.3]heptan-6-yl)benzo[d]oxazol-6-yl)oxy)methyl)-3-fluoroprop-2-en-1-amine 4-methylbenzenesulfonate]
1 to 10 | < 0.1 |  |  | > 50 | Cc1ncccc1CNc1nc2ccc(OC/C(=C\F)CN)cc2o1 [Example 69, (Z)-6-((2-(aminomethyl)-3-fluoroallyl)oxy)-N-((2-methylpyridin-3-yl)methyl)benzo[d]oxazol-2-amine 4-methylbenzenesulfonate]
1 to 10 | < 0.1 | 1 to 10 |  |  | NC/C(=C\F)COc1ccc2nc(NCCCO)oc2c1 [Example 70, (E)-3-((6-((2-(aminomethyl)-3-fluoroallyl)oxy)benzo[d]oxazol-2-yl)amino)propan-1-ol 4-methylbenzenesulfonate]
 | < 0.1 |  | > 50 | > 50 | CNC(=O)CN(C)c1nc2ccc(OC/C(=C\F)CN)cc2o1 [Example 72, (Z)-2-((6-((2-(aminomethyl)-3-fluoroallyl)oxy)benzo[d]oxazol-2-yl)(methyl)amino)-N-methylacetamide 4-methylbenzenesulfonate]
